Experimental data taken from patent US12780800B1, “Triazole-pyridinyl substituted azacyclohexyl acetic acid compounds as LPA receptor antagonists” (Viva Star Biosciences Limited, priority 2021, dated 2022).

target: T1, LPA1 (Homo sapiens, UniProt Q92633); experiment: LPA1 calcium flux assay (LPA1 functional antagonist assay); type: cell-based; conditions: PathHunter CHO-K1 EDG2 β-Arrestin cell line; calcium indicator dye; stimulated with EC80 concentration of LPA; FLIPR Tetra
T1 construct: ProLink (PK) beta-galactosidase enzyme-fragment tag; host or cells: CHO-K1
T1 sequence (Q92633 whole entry, the tested form may be a part): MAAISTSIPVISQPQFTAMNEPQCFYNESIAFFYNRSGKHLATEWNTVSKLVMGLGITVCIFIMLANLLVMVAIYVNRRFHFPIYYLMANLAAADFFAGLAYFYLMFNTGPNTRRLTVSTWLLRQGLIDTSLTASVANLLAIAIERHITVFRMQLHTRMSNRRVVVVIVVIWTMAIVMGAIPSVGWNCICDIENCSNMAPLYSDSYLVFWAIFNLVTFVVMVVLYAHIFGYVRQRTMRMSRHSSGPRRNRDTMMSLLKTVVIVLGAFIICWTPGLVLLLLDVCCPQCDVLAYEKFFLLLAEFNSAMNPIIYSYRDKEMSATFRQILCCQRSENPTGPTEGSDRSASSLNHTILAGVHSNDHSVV
Experimental: Following overnight culture, cells were loaded with calcium indicator dye from the HitHunter Calcium No WashPLUS Assay kit (Eurofins DiscoverX Corporation, Cat #93-0091) for 45 minutes at 37° C. […] After compound addition, assay plates were equilibrated to room temperature for 30 minutes. […] IC50 values were determined by Chemical and Biological Information System from ChemInnovation Software, Inc. The compounds of this invention were tested for their activity to inhibit LPA1 as determined in an LPA1 functional antagonist assay as described herein.

**Q.** For `CCc1nc(-c2nnn(C)c2COc2noc(CC3CC3)n2)ccc1N1C[C@@H](CC(=O)O)CC(F)(F)C1` [Example 116, (S)-2-(1-(6-(5-(((5-(cyclopropylmethyl)-1,2,4-oxadiazol-3-yl)oxy)methyl)-1-methyl-1H-1,2,3-triazol-4-yl)-2-ethylpyridin-3-yl)-5,5-difluoropiperidin-3-yl)acetic acid], which IC50 is on record?
**A.** The IC50 was under 100 nM.

**Q.** How did the IC50 turn out when `Cn1nnc(-c2ccc(N3CCC[C@H](CC(=O)O)C3)c(C(F)(F)F)n2)c1Cn1cc(C2CC2)ccc1=O` [Example 59, (R)-2-(1-(6-(5-((5-cyclopropyl-2-oxopyridin-1(2H)-yl)methyl)-1-methyl-1H-1,2,3-triazol-4-yl)-2-(trifluoromethyl)pyridin-3-yl)piperidin-3-yl)acetic acid] was run?
**A.** Its IC50 is under 100 nM.

**Q.** `CCc1nc(-c2cnn(C)c2Cn2ncc(CC3CC3)n2)ncc1N1C[C@@H](CC(=O)O)CC(F)(F)C1` [Example 136, (S)-2-(1-(2-(5-((4-(cyclopropylmethyl)-2H-1,2,3-triazol-2-yl)methyl)-1-methyl-1H-pyrazol-4-yl)-4-ethylpyrimidin-5-yl)-5,5-difluoropiperidin-3-yl)acetic acid] was tested. Which IC50 did it give?
**A.** Its IC50 is 100 to 500 nM.

**Q.** With `Cc1nc(-c2nnn(C)c2CN2C[C@H](CC3CC3)N(C)C2=O)ccc1N1C[C@@H](CC(=O)O)CC(F)(F)C1` [Example 63, 2-((S)-1-(6-(5-(((S)-4-(cyclopropylmethyl)-3-methyl-2-oxoimidazolidin-1-yl)methyl)-1-methyl-1H-1,2,3-triazol-4-yl)-2-methylpyridin-3-yl)-5,5-difluoropiperidin-3-yl)acetic acid] as the molecule, how does the IC50 read?
**A.** Its IC50 is 100 to 500 nM.

**Q.** How did the IC50 turn out when `CCc1nc(-c2nnn(C)c2COc2nccc(C3CCC3)n2)cc(F)c1N1CCCC(CC(=O)O)C1` (stereo not shown) [Example 88, 2-(1-(6-(5-(((4-cyclobutylpyrimidin-2-yl)oxy)methyl)-1-methyl-1H-1,2,3-triazol-4-yl)-2-ethyl-4-fluoropyridin-3-yl)piperidin-3-yl)acetic acid] was run?
**A.** The IC50 was 100 to 500 nM.

**Q.** How did the IC50 turn out when `CCCc1ccc(=O)n(Cc2c(-c3ncc(N4C[C@@H](CC(=O)O)CC(F)(F)C4)c(CC)n3)cnn2C)c1` [Example 37, (S)-2-(1-(4-ethyl-2-(1-methyl-5-((2-oxo-5-propylpyridin-1(2H)-yl)methyl)-1H-pyrazol-4-yl)pyrimidin-5-yl)-5,5-difluoropiperidin-3-yl)acetic acid] was run?
**A.** Its IC50 is over 5000 nM.

**Q.** With `Cc1nc(-c2nnn(C)c2COc2cc(-n3cccn3)ncn2)ccc1N1C[C@@H](CC(=O)O)CC(F)(F)C1` [Example 78, (S)-2-(1-(6-(5-(((6-(1H-pyrazol-1-yl)pyrimidin-4-yl)oxy)methyl)-1-methyl-1H-1,2,3-triazol-4-yl)-2-methylpyridin-3-yl)-5,5-difluoropiperidin-3-yl)acetic acid] as the molecule, how does the IC50 read?
**A.** Its IC50 is under 100 nM.

**Q.** For `CCCc1ccc(=O)n(Cc2c(-c3ccc(N4CCC[C@H](CC(=O)O)C4)c(C(F)F)n3)nnn2C)c1` [Example 60, (R)-2-(1-(2-(difluoromethyl)-6-(1-methyl-5-((2-oxo-5-propylpyridin-1(2H)-yl)methyl)-1H-1,2,3-triazol-4-yl)pyridin-3-yl)piperidin-3-yl)acetic acid], which IC50 is on record?
**A.** The IC50 was under 100 nM.

**Q.** For `CCc1nc(-c2nnn(C)c2CNc2noc(C3CCC3)n2)ccc1N1C[C@@H](CC(=O)O)CC(F)(F)C1` [Example 120, (S)-2-(1-(6-(5-(((5-cyclobutyl-1,2,4-oxadiazol-3-yl)amino)methyl)-1-methyl-1H-1,2,3-triazol-4-yl)-2-ethylpyridin-3-yl)-5,5-difluoropiperidin-3-yl)acetic acid], which IC50 is on record?
**A.** Its IC50 is 500 to 5000 nM.

**Q.** With `CCc1nc(-c2nnn(C)c2COc2nccc(N3CCCC3)n2)ccc1N1CCC[C@H](CC(=O)O)C1` [Example 83, (R)-2-(1-(2-ethyl-6-(1-methyl-5-(((4-(pyrrolidin-1-yl)pyrimidin-2-yl)oxy)methyl)-1H-1,2,3-triazol-4-yl)pyridin-3-yl)piperidin-3-yl)acetic acid] as the molecule, how does the IC50 read?
**A.** Its IC50 is 100 to 500 nM.
